Measurements taken from US11117900B2 (Vertex Pharmaceuticals Incorporated, priority 2012, dated 2021).

System: HCT116 colorectal cancer cells
Test: Cisplatin sensitization assay (96 h MTS cell viability);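 further: compound concentration needed to lower the IC50 of Cisplatin alone by a set fold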
Type: cell-based
Conditions: Cisplatin sensitization value
Outline: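 The MTS viability read, after 1 h with reagent, followed 96 h of co-treatment at 37° C. in 5% CO2. Both compound and cisplatin were titrated 2-fold from a 10 μM top final concentration in a complete concentration matrix on HCT116 cells. Scores +++/++/+ reflect cisplatin sensitization value ranges.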

Row | SMILES | Cisplatin Sensitization Assay
1 | COCC1CN(c2ccncc2NC(=O)c2c(N)nn3cc(Cl)cnc23)CCN1C (stereo not drawn) [I-N-47, 2-amino-6-chloro-N-(4-(3-(methoxymethyl)-4-methylpiperazin-1-yl)pyridin-3-yl)pyrazolo[1,5-a]pyrimidine-3-carboxamide] | ++ (Compounds with a Cisplatin sensitization value >0.02 μM but <0.2 μM are marked with “++.”)
2 | Nc1nn2cc(F)cnc2c1C(=O)Nc1cncc2c1CCNC2 [I-C-7, 2-amino-6-fluoro-N-(5,6,7,8-tetrahydro-2,7-naphthyridin-4-yl)pyrazolo[1,5-a]pyrimidine-3-carboxamide] | ++ (Compounds with a Cisplatin sensitization value >0.02 μM but <0.2 μM are marked with “++.”)
3 | N#CCc1cnc2c(C(=O)Nc3cnccc3OCC(F)(F)F)c(N)nn2c1 [I-O-34, 2-amino-6-(cyanomethyl)-N-(4-(2,2,2-trifluoroethoxy)pyridin-3-yl)pyrazolo[1,5-a]pyrimidine-3-carboxamide] | ++ (Compounds with a Cisplatin sensitization value >0.02 μM but <0.2 μM are marked with “++.”)
4 | Cc1cncc(NC(=O)c2c(N)nn3cc(F)cnc23)c1N1CCC(C(=O)N2CCN(C)CC2)CC1 [I-G-55, 2-amino-6-fluoro-N-(5-methyl-4-(4-(4-methylpiperazine-1-carbonyl)piperidin-1-yl)pyridin-3-yl)pyrazolo[1,5-a]pyrimidine-3-carboxamide] | +++ (Compounds with a Cisplatin sensitization value of <0.02 μM are marked with “+++.”)
5 | COC1CCN(c2ccncc2NC(=O)c2c(N)nn3cc(F)cnc23)CC1 [I-N-266, 2-amino-6-fluoro-N-(4-(4-methoxypiperidin-1-yl)pyridin-3-yl)pyrazolo[1,5-a]pyrimidine-3-carboxamide] | +++ (Compounds with a Cisplatin sensitization value of <0.02 μM are marked with “+++.”)
6 | Nc1nn2cc(F)cnc2c1C(=O)Nc1cnccc1-n1cccn1 [I-N-26, N-(4-(1H-pyrazol-1-yl)pyridin-3-yl)-2-amino-6-fluoropyrazolo[1,5-a]pyrimidine-3-carboxamide] | + (Compounds with a Cisplatin sensitization value >0.2 μM but <5 μM are marked with “+.”)
7 | Nc1nn2cc(Cl)cnc2c1C(=O)Nc1cnccc1N1CCN(C2CCC2)CC1 [I-N-48, 2-amino-6-chloro-N-(4-(4-cyclobutylpiperazin-1-yl)pyridin-3-yl)pyrazolo[1,5-a]pyrimidine-3-carboxamide] | ++ (Compounds with a Cisplatin sensitization value >0.02 μM but <0.2 μM are marked with “++.”)
8 | CC1(O)CN(C(=O)C2CCN(c3c(F)cncc3NC(=O)c3c(N)nn4cc(F)cnc34)CC2)C1 [I-G-63, 2-amino-6-fluoro-N-(5-fluoro-4-(4-(3-hydroxy-3-methylazetidine-1-carbonyl)piperidin-1-yl)pyridin-3-yl)pyrazolo[1,5-a]pyrimidine-3-carboxamide] | +++ (Compounds with a Cisplatin sensitization value of <0.02 μM are marked with “+++.”)
9 | Nc1nn2cc(F)cnc2c1C(=O)Nc1cncc(Cl)c1N1CCN(C2CCOC2)CC1 (stereo not drawn) [I-N-124, 2-amino-N-(5-chloro-4-(4-(tetrahydrofuran-3-yl)piperazin-1-yl)pyridin-3-yl)-6-fluoropyrazolo[1,5-a]pyrimidine-3-carboxamide] | +++ (Compounds with a Cisplatin sensitization value of <0.02 μM are marked with “+++.”)
10 | Nc1nn2cc(Cl)cnc2c1C(=O)Nc1cnccc1-n1ccnc1 [I-N-29, N-(4-(1H-imidazol-1-yl)pyridin-3-yl)-2-amino-6-chloropyrazolo[1,5-a]pyrimidine-3-carboxamide] | ++ (Compounds with a Cisplatin sensitization value >0.02 μM but <0.2 μM are marked with “++.”)
11 | CCN1CCN(C(=O)C2CCN(c3c(F)cncc3NC(=O)c3c(N)nn4cc(F)cnc34)CC2)CC1 [I-G-9, 2-amino-N-(4-(4-(4-ethylpiperazine-1-carbonyl)piperidin-1-yl)-5-fluoropyridin-3-yl)-6-fluoropyrazolo[1,5-a]pyrimidine-3-carboxamide] | +++ (Compounds with a Cisplatin sensitization value of <0.02 μM are marked with “+++.”)
12 | CC1(S(C)(=O)=O)CCN(c2ccncc2NC(=O)c2c(N)nn3cc(F)cnc23)CC1 [I-N-243, 2-amino-6-fluoro-N-(4-(4-methyl-4-(methylsulfonyl)piperidin-1-yl)pyridin-3-yl)pyrazolo[1,5-a]pyrimidine-3-carboxamide] | +++ (Compounds with a Cisplatin sensitization value of <0.02 μM are marked with “+++.”)
13 | CN1CC(OC2CCN(c3ccncc3NC(=O)c3c(N)nn4cc(F)cnc34)CC2)C1 [I-N-164, 2-amino-6-fluoro-N-(4-(4-((1-methylazetidin-3-yl)oxy)piperidin-1-yl)pyridin-3-yl)pyrazolo[1,5-a]pyrimidine-3-carboxamide] | +++ (Compounds with a Cisplatin sensitization value of <0.02 μM are marked with “+++.”)
14 | Nc1nn2cc(F)cnc2c1C(=O)Nc1cncc(F)c1N1CCC2(CC1)COC2 [I-N-239, 2-amino-6-fluoro-N-(5-fluoro-4-(2-oxa-7-azaspiro[3.5]nonan-7-yl)pyridin-3-yl)pyrazolo[1,5-a]pyrimidine-3-carboxamide] | +++ (Compounds with a Cisplatin sensitization value of <0.02 μM are marked with “+++.”)
15 | Nc1nn2cc(F)cnc2c1C(=O)Nc1cncc(F)c1N1CCC(n2ccnc2)CC1 [I-N-288, N-(4-(4-(1H-imidazol-1-yl)piperidin-1-yl)-5-fluoropyridin-3-yl)-2-amino-6-fluoropyrazolo[1,5-a]pyrimidine-3-carboxamide] | +++ (Compounds with a Cisplatin sensitization value of <0.02 μM are marked with “+++.”)
16 | Nc1nn2cc(F)cnc2c1C(=O)Nc1cncc(F)c1N1CCCC1 [I-N-246, 2-amino-6-fluoro-N-(5-fluoro-4-(pyrrolidin-1-yl)pyridin-3-yl)pyrazolo[1,5-a]pyrimidine-3-carboxamide] | ++ (Compounds with a Cisplatin sensitization value >0.02 μM but <0.2 μM are marked with “++.”)
17 | Nc1nn2cc(F)cnc2c1C(=O)Nc1cnccc1N1CCN(C(=O)C2COC2)CC1 [I-N-249] | +++ (Compounds with a Cisplatin sensitization value of <0.02 μM are marked with “+++.”)
18 | CN(C)CCOc1cc(C(F)(F)F)ncc1NC(=O)c1c(N)nn2cc(Cl)cnc12 [I-O-71, 2-amino-6-chloro-N-(4-(2-(dimethylamino)ethoxy)-6-(trifluoromethyl)pyridin-3-yl)pyrazolo[1,5-a]pyrimidine-3-carboxamide] | + (Compounds with a Cisplatin sensitization value >0.2 μM but <5 μM are marked with “+.”)
19 | Nc1nn2cc(F)cnc2c1C(=O)Nc1cnccc1N1CCOCC1 [I-N-141, 2-amino-6-fluoro-N-(4-morpholinopyridin-3-yl)pyrazolo[1,5-a]pyrimidine-3-carboxamide] | +++ (Compounds with a Cisplatin sensitization value of <0.02 μM are marked with “+++.”)
20 | Nc1nn2cc(F)cnc2c1C(=O)Nc1cncc(F)c1N1CCC(C(=O)N2CC[C@H](N3CCCC3)C2)CC1 [I-G-58, (S)—N-(4-(4-([1,3′-bipyrrolidine]-1′-carbonyl)piperidin-1-yl)-5-fluoropyridin-3-yl)-2-amino-6-fluoropyrazolo[1,5-a]pyrimidine-3-carboxamide] | +++ (Compounds with a Cisplatin sensitization value of <0.02 μM are marked with “+++.”)
21 | Cn1cncc1-c1ccncc1NC(=O)c1c(N)nn2cc(F)cnc12 [I-C-56, 2-amino-6-fluoro-N-(4-(1-methyl-1H-imidazol-5-yl)pyridin-3-yl)pyrazolo[1,5-a]pyrimidine-3-carboxamide] | +++ (Compounds with a Cisplatin sensitization value of <0.02 μM are marked with “+++.”)
22 | COCCS(=O)(=O)C1CCN(c2ccncc2NC(=O)c2c(N)nn3cc(F)cnc23)CC1 [I-N-208, 2-amino-6-fluoro-N-(4-(4-((2-methoxyethyl)sulfonyl)piperidin-1-yl)pyridin-3-yl)pyrazolo[1,5-a]pyrimidine-3-carboxamide] | +++ (Compounds with a Cisplatin sensitization value of <0.02 μM are marked with “+++.”)
23 | Nc1nn2cc(Cl)cnc2c1C(=O)Nc1cnccc1N1CCN2CCC[C@H]2C1 [I-N-71, (S)-2-amino-6-chloro-N-(4-(hexahydropyrrolo[1,2-a]pyrazin-2(1H)-yl)pyridin-3-yl)pyrazolo[1,5-a]pyrimidine-3-carboxamide] | +++ (Compounds with a Cisplatin sensitization value of <0.02 μM are marked with “+++.”)
24 | CN1CCN(c2c(Cl)cncc2NC(=O)c2c(N)nn3cc(Cl)cnc23)CC1 [I-N-41, 2-amino-6-chloro-N-(5-chloro-4-(4-methylpiperazin-1-yl)pyridin-3-yl)pyrazolo[1,5-a]pyrimidine-3-carboxamide] | +++ (Compounds with a Cisplatin sensitization value of <0.02 μM are marked with “+++.”)
25 | CN1CCC(c2ccncc2NC(=O)c2c(N)nn3cc(C(C)(C)C#N)cnc23)CC1 [I-C-23, 2-amino-6-(2-cyanopropan-2-yl)-N-(4-(1-methylpiperidin-4-yl)pyridin-3-yl)pyrazolo[1,5-a]pyrimidine-3-carboxamide] | + (Compounds with a Cisplatin sensitization value >0.2 μM but <5 μM are marked with “+.”)
26 | Nc1nn2cc(Cl)cnc2c1C(=O)Nc1cncc(F)c1N1CCN(C2COC2)CC1 [I-N-117, 2-amino-6-chloro-N-(5-fluoro-4-(4-(oxetan-3-yl)piperazin-1-yl)pyridin-3-yl)pyrazolo[1,5-a]pyrimidine-3-carboxamide] | +++ (Compounds with a Cisplatin sensitization value of <0.02 μM are marked with “+++.”)
27 | CC(C)N1CCCC1C(=O)N1CCN(c2c(F)cncc2NC(=O)c2c(N)nn3cc(F)cnc23)CC1 (stereo not drawn) [I-N-205, 2-amino-6-fluoro-N-(5-fluoro-4-(4-(1-isopropylpyrrolidine-2-carbonyl)piperazin-1-yl)pyridin-3-yl)pyrazolo[1,5-a]pyrimidine-3-carboxamide] | ++ (Compounds with a Cisplatin sensitization value >0.02 μM but <0.2 μM are marked with “++.”)
